Results published in patent publication US20130344026A1, “Dimeric Smac Mimetics” (priority 2009, published 2013).
Read-outs that look alike come from different tables or passages of the source. *1 amine or outer side, *2 acyl side, *3 side chain or, on linkers, in order; H or OH if unused. Where a SMILES comes first, the peptide text is derived from it. Bridges are numbered along the chain shown (N, C = ends). Roman numbers before positions name the chains, in order. [ ]: non-standard residue; d: D form. NH(CH2)8NH = C(CCCCN[*:2])CCCN[*:1]; Chg = N[C@H](C(=O)O)C1CCCCC1; Tle = CC(C)(C)[C@H](N)C(=O)O; NMeA = CN[C@@H](C)C(=O)O

System: HCC461
Assay: cell viability assay in HCC461, compound alone
Assay type: cell-based
[1] = HCC461 cells, compound alone, read-out: IC50 (uM) in cell viability assay in HCC461
[2] = HCC461, HCC461 cells, compound alone, read-out: IC50 (uM) in cell viability assay in HCC461
[3] = HCC461, HCC461, Tables 15-18, read-out: IC50 (uM) in cell viability assay in HCC461
[4] = HCC461, HCC461, Tables 6-9, read-out: IC50 (μM) in cell viability assay in HCC461
[5] = HCC461, Tables 6-9, read-out: IC50 (μM) in cell viability assay in HCC461

CN[C@@H](C)C(=O)N[C@H](C(=O)N1C[C@@H](NC(=O)C2CCCC(C(=O)N[C@H]3C[C@@H](C(=O)NC4CCCc5ccccc54)N(C(=O)[C@@H](NC(=O)[C@H](C)NC)C(C)(C)C)C3)C2)CC1C(=O)N[C@@H]1CCCc2ccccc21)C(C)(C)C (stereo partly shown) [Compound P3-17]
IC50 [1]: 0.002 µM

CN[C@@H](C)C(=O)N[C@H](C(=O)N1C[C@@H](NC(=O)CCC(=O)N[C@H]2C[C@@H](C(=O)NC3CCCc4ccccc43)N(C(=O)[C@@H](NC(=O)[C@H](C)NC)C(C)(C)C)C2)C[C@H]1C(=O)NC1CCCc2ccccc21)C(C)(C)C (stereo partly shown) [Compound P3-1]
IC50 [2]: 0.022 µM

CN[C@@H](C)C(=O)N[C@H](C(=O)N1C[C@@H](NC(=O)c2cccnc2-c2ncccc2C(=O)N[C@H]2C[C@@H](C(=O)NC3CCCc4ccccc43)N(C(=O)[C@@H](NC(=O)[C@H](C)NC)C(C)(C)C)C2)CC1C(=O)N[C@@H]1CCCc2ccccc21)C(C)(C)C (stereo partly shown) [Compound P3-39]
IC50 [2]: 0.006 µM

CN[C@@H](C)C(=O)N[C@H](C(=O)N1C[C@@H](NC(=O)c2ccc(CNC(=O)CCC(=O)NCc3ccc(C(=O)N[C@H]4C[C@@H](C(=O)NC5CCCc6ccccc65)N(C(=O)[C@@H](NC(=O)[C@H](C)NC)C(C)(C)C)C4)cc3)cc2)C[C@H]1C(=O)NC1CCCc2ccccc21)C(C)(C)C (single isomer, unassigned) [Compound P3-70]
IC50 [2]: 0.06 µM

CN[C@@H](C)C(=O)N[C@H](C(=O)N1C[C@@H](NC(=O)c2cccc(C(=O)N[C@H]3C[C@@H](C(=O)N[C@H](C)C(C)C)N(C(=O)[C@@H](NC(=O)[C@H](C)NC)C(C)(C)C)C3)c2)C[C@H]1C(=O)N[C@H](C)C(C)C)C(C)(C)C [Compound P3-83]
IC50 [2]: 0.196 µM

CN[C@@H](C)C(=O)N[C@H](C(=O)N1CCC[C@H]1C(=O)N[C@H](CNC(=O)[C@@H]1CC[C@](C)(C(=O)NC[C@@H](NC(=O)[C@@H]2CCCN2C(=O)[C@@H](NC(=O)[C@H](C)NC)C(C)(C)C)c2ccccc2)C1(C)C)c1ccccc1)C(C)(C)C [Compound P3-48]
IC50 [2]: 0.183 µM

CN[C@@H](C)C(=O)N[C@H](C(=O)N1CCC[C@H]1C(=O)N[C@@H]1CCCc2ccccc21)c1ccc(OCc2ccccc2COc2ccc([C@H](NC(=O)[C@H](C)NC)C(=O)N3CCC[C@H]3C(=O)N[C@@H]3CCCc4ccccc43)cc2)cc1 [Compound P2-3]
IC50 [3]: 0.072 µM

CN[C@@H](C)C(=O)N[C@H](C(=O)N1C[C@@H](NC(=O)c2nn[nH]c2C(=O)N[C@H]2C[C@@H](C(=O)NC3CCCc4ccccc43)N(C(=O)[C@@H](NC(=O)[C@H](C)NC)C(C)(C)C)C2)CC1C(=O)N[C@@H]1CCCc2ccccc21)C(C)(C)C (stereo partly shown) [Compound P3-26]
IC50 [2]: 0.058 µM

CN[C@@H](C)C(=O)N[C@@H](CCCCNC(=O)c1cccc(C(=O)N[C@H]2C[C@@H](C(=O)N[C@@H]3CCCc4ccccc43)N(C(=O)[C@@H](NC(=O)[C@H](C)NC)C(C)(C)C)C2)c1)C(=O)N1CC=C[C@H]1C(=O)N[C@@H]1CCCc2ccccc21 [Compound 144]
IC50 [4]: 0.043 µM

CN[C@@H](C)C(=O)N[C@@H](CCC(=O)O)C(=O)N1C[C@@H](NC(=O)c2cccc(C(=O)N[C@H]3C[C@@H](C(=O)N[C@H](C)c4ccccc4)N(C(=O)[C@@H](NC(=O)[C@H](C)NC)C(C)(C)C)C3)c2)CC1C(=O)N[C@H](C)c1ccccc1 (stereo partly shown) [Compound 148]
IC50 [4]: 0.622 µM

CN[C@@H](C)C(=O)N[C@H](C(=O)N1CCC[C@H]1C(=O)N[C@H](CNC(=O)C1CCC(C(=O)NC[C@@H](NC(=O)[C@@H]2CCCN2C(=O)[C@@H](NC(=O)[C@H](C)NC)C(C)(C)C)C2CCCCC2)CC1)C1CCCCC1)C(C)(C)C (stereo partly shown) [Compound P4-6]
IC50 [3]: 0.07 µM

CN[C@@H](C)C(=O)NC(C(=O)N1C[C@@H](NC(=O)c2cccc(C(=O)N[C@H]3C[C@@H](C(=O)N[C@H](C)c4ccccc4)N(C(=O)[C@H](CCC(=O)OC)NC(=O)[C@@H](N)CO)C3)c2)CC1C(=O)N[C@@H]1CCCc2ccccc21)C(C)(C)C (stereo partly shown) [Compound 153]
IC50 [4]: 27.6 µM

C#CC[C@H](NC(=O)[C@H](C)NC)C(=O)N1C[C@@H](NC(=O)N[C@H]2C[C@@H](C(=O)N[C@@H]3CCCc4ccccc43)N(C(=O)[C@H](CC#C)NC(=O)[C@H](C)NC)C2)CC1C(=O)N[C@@H]1CCCc2ccccc21 (stereo partly shown) [Compound P3-9]
IC50 [2]: 0.086 µM

CN[C@@H](C)C(=O)N[C@H](C(=O)N1CCC[C@H]1Cn1nnnc1SC(C)(C)C)[C@@H](C)OCC#CC#CCO[C@H](C)[C@H](NC(=O)[C@H](C)NC)C(=O)N1CCC[C@H]1Cn1nnnc1SC(C)(C)C [Compound P2-21]
IC50 [3]: 0.24 µM

CN[C@@H](C)C(=O)N[C@@H](CCNC(=O)c1cc(C(=O)NCC[C@H](NC(=O)[C@H](C)NC)C(=O)N2CCC[C@H]2C(=O)N[C@@H]2CCCc3ccccc32)[nH]n1)C(=O)N1CCC[C@H]1C(=O)N[C@@H]1CCCc2ccccc21 [Compound P2-28]
IC50 [3]: 0.163 µM

CN[C@@H](C)C(=O)N[C@H](C(=O)N1C[C@@H](NC(=O)C2CCCC(C(=O)N[C@H]3C[C@@H](C(=O)NC4CCCc5ccccc54)N(C(=O)[C@@H](NC(=O)[C@H](C)NC)C(C)(C)C)C3)C2)CC1C(=O)N[C@@H]1CCCc2ccccc21)C(C)(C)C (stereo partly shown) [Compound P3-27]
IC50 [1]: 0.031 µM

CN[C@@H](CO)C(=O)N[C@H](C(=O)N1C[C@@H](NC(=O)c2cccc(C(=O)N[C@H]3C[C@@H](C(=O)N[C@@H]4CCCc5ccccc54)N(C(=O)[C@@H](NC(=O)[C@H](CO)NC)C(C)(C)C)C3)c2)C[C@H]1C(=O)N[C@@H]1CCCc2ccccc21)C(C)(C)C [Compound P3-86]
IC50 [2]: 0.077 µM

CN[C@@H](C)C(=O)N[C@H](C(=O)N1CCC[C@H]1C(=O)N[C@H](C(=O)NCCCCCCCCNC(=O)[C@@H](NC(=O)[C@@H]1CCCN1C(=O)[C@@H](NC(=O)[C@H](C)NC)C(C)(C)C)C1CCCCC1)C1CCCCC1)C(C)(C)C [Compound P4-7] (I: H-[NMeA][Tle]P[Chg] / II: H-[NMeA][Tle]P[Chg]; linker I:C-II:C via NH(CH2)8NH)
IC50 [3]: 0.205 µM

CN[C@@H](C)C(=O)N[C@H](C(=O)N1CCC[C@H]1C(=O)N[C@H](CNC(=O)CCCC(=O)NC[C@@H](NC(=O)[C@@H]1CCCN1C(=O)[C@@H](NC(=O)[C@H](C)NC)C(C)(C)C)c1ccccc1)c1ccccc1)C(C)(C)C [Compound P4-14]
IC50 [3]: 0.093 µM

C[C@H](NC(=O)OCc1ccc([N+](=O)[O-])cc1)C(=O)NC(C(=O)N1C[C@@H](NC(=O)c2cc(C(=O)N[C@H]3C[C@@H](C(=O)N[C@@H]4CCCc5ccccc54)N(C(=O)[C@@H](NC(=O)[C@H](C)NC(=O)OCc4ccc([N+](=O)[O-])cc4)C(C)(C)C)C3)cc(S(=O)(=O)O)c2)CC1C(=O)N[C@@H]1CCCc2ccccc21)C(C)(C)C (stereo partly shown) [Compound 112]
IC50 [5]: > 30 µM

CN[C@@H](C)C(=O)N[C@@H](Cc1ccc(O[C@H]2C[C@@H](C(=O)N[C@@H]3CCCc4ccccc43)N(C(=O)[C@@H](NC(=O)[C@H](C)NC)C(C)(C)C)C2)cc1)C(=O)N1CCCC1 [Compound H-3]
IC50 [3]: 0.088 µM

CN[C@@H](C)C(=O)N[C@@H](CCCCNC(=O)c1cccc(C(=O)N[C@H]2CCN(C(=O)[C@@H](NC(=O)[C@H](C)NC)C(C)(C)C)C2)c1)C(=O)N1CCC[C@H]1C(=O)N[C@@H]1CCCc2ccccc21 [Compound 135]
IC50 [4]: 12.1 µM

CN[C@@H](C)C(=O)N[C@@H](CC#CC#CC[C@H](NC(=O)[C@H](C)NC)C(=O)N1CSC[C@H]1C(=O)N[C@@H]1CCCc2ccccc21)C(=O)N1CSC[C@H]1C(=O)N[C@@H]1CCCc2ccccc21 [Compound 88]
IC50 [4]: 0.188 µM

CN[C@@H](C)C(=O)N[C@H](C(=O)N1C[C@@H](NC(=O)C(C)C(C)C(=O)N[C@H]2C[C@@H](C(=O)N[C@@H]3CCCc4ccccc43)N(C(=O)[C@@H](NC(=O)[C@H](C)NC)C(C)(C)C)C2)C[C@H]1C(=O)N[C@@H]1CCCc2ccccc21)C(C)(C)C (stereo partly shown) [Compound P3-24]
IC50 [2]: 0.006 µM

CN[C@@H](C)C(=O)N[C@H](C(=O)N1C[C@@H](n2cc(CNC(=O)c3cccc(C(=O)NCc4cn([C@H]5C[C@@H](C(=O)N[C@@H]6CCCc7ccccc76)N(C(=O)[C@@H](NC(=O)[C@H](C)NC)C(C)(C)C)C5)nn4)c3)nn2)C[C@H]1C(=O)N[C@@H]1CCCc2ccccc21)C(C)(C)C [Compound P3-7]
IC50 [2]: 0.007 µM

CN[C@@H](C)C(=O)N[C@H](C(=O)N1C[C@@H](NC(=O)c2cccc(C(=O)NCCCC[C@H](NC(=O)[C@@H](NC(=O)[C@H](CO)NC)C(C)(C)C)C(=O)N[C@@H](C)C(C)C)c2)CC1C(=O)N[C@@H]1CCc2ccccc2C1)C(C)(C)C (stereo partly shown) [Compound 165]
IC50 [5]: > 30 µM

CN[C@@H](C)C(=O)N[C@@H](CCCCNC(=O)c1cccc(C(=O)N[C@H]2C[C@@H](C(=O)N[C@@H]3CCCc4ccccc43)N(C(=O)[C@@H](NC(=O)[C@H](C)NC)C(C)(C)C)C2)c1)C(=O)N1CCC[C@H]1C(=O)N[C@@H]1CCCc2ccccc21 [Compound 134]
IC50 [4]: 0.058 µM

CN[C@@H](C)C(=O)N[C@H](C(=O)N1C[C@@H](NC(=O)c2cc(N)cc(C(=O)N[C@H]3C[C@@H](C(=O)N[C@@H]4CCCc5ccccc54)N(C(=O)[C@@H](NC(=O)[C@H](C)NC)C(C)C)C3)c2)C[C@H]1C(=O)N[C@@H]1CCCc2ccccc21)C(C)C [Compound P3-56]
IC50 [2]: 0.091 µM

CN[C@@H](C)C(=O)N[C@@H](CC#CC#CC[C@H](NC(=O)[C@H](C)NC)C(=O)N1CC=C[C@H]1C(=O)N[C@@H]1CCCc2ccccc21)C(=O)N1CC=C[C@H]1C(=O)N[C@@H]1CCCc2ccccc21 [Compound 89]
IC50 [4]: 0.414 µM

CN[C@@H](C)C(=O)N[C@H](C(=O)N1C[C@@H](NC(=O)c2cccc(C(=O)N[C@H]3C[C@@H](C(=O)N[C@@H]4CCCc5ccccc54)N(C(=O)[C@@H](NC(=O)[C@H](C)NC)C(C)(C)C)C3)n2)C[C@H]1C(=O)N[C@@H]1CCCc2ccccc21)C(C)(C)C [Compound P3-10]
IC50 [2]: 0.046 µM

CN[C@@H](C)C(=O)N[C@H](C(=O)N1C[C@@H](NC(=O)c2cc(C(=O)N[C@H]3C[C@@H](C(=O)N[C@@H]4CCCc5ccccc54)N(C(=O)[C@@H](NC(=O)[C@H](C)NC)C(C)(C)C)C3)cc(N(S(C)(=O)=O)S(C)(=O)=O)c2)C[C@H]1C(=O)N[C@@H]1CCCc2ccccc21)C(C)(C)C [Compound P3-41]
IC50 [2]: 0.016 µM
